Experimental data reported in the kinase profiling compilation of Christmann-Franck et al. (2016).

How the values were obtained:
Test in all cases: radiometric filter-binding kinase assay, Kinase HotSpot
Conditions in all cases: compound 0.5 µM; ATP 10 µM
[1] = target: AXL (human) (UniProt P30530)
[2] = target: CAMK2D (human) (UniProt Q13557)
[3] = target: CDK2 CCNE1 (human) (UniProt P24941+P24864)
[4] = target: CDK5 CDK5R1 p35 (human) (UniProt Q00535+Q15078)
[5] = target: CLK2 (human) (UniProt P49760)
[6] = target: CLK4 (human) (UniProt Q9HAZ1)
Chain of CLK4 (human) (Q9HAZ1 whole entry, looked up): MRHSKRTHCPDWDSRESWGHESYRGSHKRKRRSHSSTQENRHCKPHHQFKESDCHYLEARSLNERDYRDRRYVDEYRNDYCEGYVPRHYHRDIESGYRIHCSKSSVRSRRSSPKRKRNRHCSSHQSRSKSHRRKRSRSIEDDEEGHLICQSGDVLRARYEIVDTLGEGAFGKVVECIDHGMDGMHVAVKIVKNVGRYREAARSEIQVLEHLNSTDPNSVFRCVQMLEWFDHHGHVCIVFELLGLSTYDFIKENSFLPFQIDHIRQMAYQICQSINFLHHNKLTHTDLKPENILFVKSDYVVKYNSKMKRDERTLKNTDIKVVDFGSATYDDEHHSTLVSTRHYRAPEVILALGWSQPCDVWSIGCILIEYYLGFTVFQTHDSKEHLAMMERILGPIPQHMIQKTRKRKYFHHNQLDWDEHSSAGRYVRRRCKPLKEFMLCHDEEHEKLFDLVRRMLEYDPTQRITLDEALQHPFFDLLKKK

[7] = target: DAPK2 (human) (UniProt Q9UIK4)
Chain of DAPK2 (human) (Q9UIK4 whole entry, looked up): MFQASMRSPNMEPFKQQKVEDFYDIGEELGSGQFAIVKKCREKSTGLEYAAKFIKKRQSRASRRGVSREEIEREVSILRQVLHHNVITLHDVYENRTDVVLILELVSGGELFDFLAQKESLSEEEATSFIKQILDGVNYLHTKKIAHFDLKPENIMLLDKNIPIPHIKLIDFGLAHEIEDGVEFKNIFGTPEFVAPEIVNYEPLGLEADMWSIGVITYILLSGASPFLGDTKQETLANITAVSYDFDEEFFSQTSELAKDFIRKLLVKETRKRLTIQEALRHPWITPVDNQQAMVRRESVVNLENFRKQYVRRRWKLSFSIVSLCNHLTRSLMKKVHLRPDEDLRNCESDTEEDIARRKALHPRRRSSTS

[8] = target: DCLK2 (human) (UniProt Q8N568)
[9] = target: EPHA2 (human) (UniProt P29317)
[10] = target: EPHA3 (human) (UniProt P29320)
[11] = target: EPHB1 (human) (UniProt P54762)
[12] = target: FER (human) (UniProt P16591)
[13] = target: GRK4 (human) (UniProt P32298)
[14] = target: GRK6 (human) (UniProt P43250)
[15] = target: GSK3B (human) (UniProt P49841)
[16] = target: HIPK1 (human) (UniProt Q86Z02)
[17] = target: HIPK4 (human) (UniProt Q8NE63)
Chain of HIPK4 (human) (Q8NE63 whole entry, looked up): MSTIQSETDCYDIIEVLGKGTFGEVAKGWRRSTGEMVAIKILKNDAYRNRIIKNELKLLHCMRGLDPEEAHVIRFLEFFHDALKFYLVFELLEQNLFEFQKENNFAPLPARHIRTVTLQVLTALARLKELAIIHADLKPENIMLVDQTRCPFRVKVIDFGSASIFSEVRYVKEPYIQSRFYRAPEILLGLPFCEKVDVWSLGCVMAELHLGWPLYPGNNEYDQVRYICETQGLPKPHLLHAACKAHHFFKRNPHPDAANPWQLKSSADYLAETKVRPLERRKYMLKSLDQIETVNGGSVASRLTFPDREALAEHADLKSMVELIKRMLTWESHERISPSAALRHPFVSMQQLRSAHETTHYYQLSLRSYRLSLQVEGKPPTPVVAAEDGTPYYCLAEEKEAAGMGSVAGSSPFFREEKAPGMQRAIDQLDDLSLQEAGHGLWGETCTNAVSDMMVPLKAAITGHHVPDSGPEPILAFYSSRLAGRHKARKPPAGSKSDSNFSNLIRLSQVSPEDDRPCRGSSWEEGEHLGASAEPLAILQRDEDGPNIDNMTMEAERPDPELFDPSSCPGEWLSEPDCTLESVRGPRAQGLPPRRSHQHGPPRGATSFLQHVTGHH

[18] = target: LIMK1 (human) (UniProt P53667)
Chain of LIMK1 (human) (P53667 whole entry, looked up): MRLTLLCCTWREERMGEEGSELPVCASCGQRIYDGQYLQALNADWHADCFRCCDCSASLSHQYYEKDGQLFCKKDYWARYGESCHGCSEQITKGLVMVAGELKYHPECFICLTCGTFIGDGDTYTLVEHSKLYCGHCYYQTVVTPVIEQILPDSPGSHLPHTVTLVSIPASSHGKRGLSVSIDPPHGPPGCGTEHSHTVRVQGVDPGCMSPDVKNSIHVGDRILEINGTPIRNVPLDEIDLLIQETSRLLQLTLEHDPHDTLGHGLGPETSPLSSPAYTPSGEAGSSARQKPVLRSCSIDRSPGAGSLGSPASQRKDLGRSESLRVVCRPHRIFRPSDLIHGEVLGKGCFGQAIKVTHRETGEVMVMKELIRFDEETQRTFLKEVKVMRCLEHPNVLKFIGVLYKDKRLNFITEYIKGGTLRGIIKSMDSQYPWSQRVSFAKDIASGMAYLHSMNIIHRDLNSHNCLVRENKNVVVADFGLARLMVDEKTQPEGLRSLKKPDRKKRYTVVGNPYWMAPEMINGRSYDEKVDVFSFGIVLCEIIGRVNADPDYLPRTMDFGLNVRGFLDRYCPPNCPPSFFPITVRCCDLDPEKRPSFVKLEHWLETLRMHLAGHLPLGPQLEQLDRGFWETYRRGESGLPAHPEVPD

[19] = target: MAP4K2 (human) (UniProt Q12851)
Chain of MAP4K2 (human) (Q12851 whole entry, looked up): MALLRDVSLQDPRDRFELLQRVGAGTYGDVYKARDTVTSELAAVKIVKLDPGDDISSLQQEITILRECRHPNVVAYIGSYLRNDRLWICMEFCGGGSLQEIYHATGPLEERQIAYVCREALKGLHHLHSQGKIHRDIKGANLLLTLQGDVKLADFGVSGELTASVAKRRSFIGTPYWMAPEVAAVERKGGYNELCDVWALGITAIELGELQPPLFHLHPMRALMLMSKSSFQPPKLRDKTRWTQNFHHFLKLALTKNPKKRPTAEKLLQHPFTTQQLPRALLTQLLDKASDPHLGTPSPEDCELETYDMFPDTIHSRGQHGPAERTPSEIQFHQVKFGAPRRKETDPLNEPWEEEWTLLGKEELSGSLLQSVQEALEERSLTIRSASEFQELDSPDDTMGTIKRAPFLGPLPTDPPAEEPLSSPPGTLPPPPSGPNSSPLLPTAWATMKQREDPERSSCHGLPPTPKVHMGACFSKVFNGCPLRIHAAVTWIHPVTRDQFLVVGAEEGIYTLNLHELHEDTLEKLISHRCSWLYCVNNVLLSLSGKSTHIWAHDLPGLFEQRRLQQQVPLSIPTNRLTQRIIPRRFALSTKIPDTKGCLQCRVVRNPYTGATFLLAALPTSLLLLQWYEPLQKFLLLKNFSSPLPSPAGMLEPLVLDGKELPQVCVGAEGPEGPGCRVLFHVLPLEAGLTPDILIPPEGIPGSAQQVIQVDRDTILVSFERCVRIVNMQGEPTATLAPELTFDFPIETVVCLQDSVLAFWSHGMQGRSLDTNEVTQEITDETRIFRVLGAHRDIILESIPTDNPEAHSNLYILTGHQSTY

[20] = target: MAP4K4 (human) (UniProt O95819)
[21] = target: MAPKAPK2 (human) (UniProt P49137)
[22] = target: MAPKAPK3 (human) (UniProt Q16644)
[23] = target: MAPKAPK5 (human) (UniProt Q8IW41)
[24] = target: MARK2 (human) (UniProt Q7KZI7)
[25] = target: MARK4 (human) (UniProt Q96L34)
[26] = target: MKNK2 (human) (UniProt Q9HBH9)
[27] = target: MUSK (human) (UniProt O15146)
Chain of MUSK (human) (O15146 whole entry, looked up): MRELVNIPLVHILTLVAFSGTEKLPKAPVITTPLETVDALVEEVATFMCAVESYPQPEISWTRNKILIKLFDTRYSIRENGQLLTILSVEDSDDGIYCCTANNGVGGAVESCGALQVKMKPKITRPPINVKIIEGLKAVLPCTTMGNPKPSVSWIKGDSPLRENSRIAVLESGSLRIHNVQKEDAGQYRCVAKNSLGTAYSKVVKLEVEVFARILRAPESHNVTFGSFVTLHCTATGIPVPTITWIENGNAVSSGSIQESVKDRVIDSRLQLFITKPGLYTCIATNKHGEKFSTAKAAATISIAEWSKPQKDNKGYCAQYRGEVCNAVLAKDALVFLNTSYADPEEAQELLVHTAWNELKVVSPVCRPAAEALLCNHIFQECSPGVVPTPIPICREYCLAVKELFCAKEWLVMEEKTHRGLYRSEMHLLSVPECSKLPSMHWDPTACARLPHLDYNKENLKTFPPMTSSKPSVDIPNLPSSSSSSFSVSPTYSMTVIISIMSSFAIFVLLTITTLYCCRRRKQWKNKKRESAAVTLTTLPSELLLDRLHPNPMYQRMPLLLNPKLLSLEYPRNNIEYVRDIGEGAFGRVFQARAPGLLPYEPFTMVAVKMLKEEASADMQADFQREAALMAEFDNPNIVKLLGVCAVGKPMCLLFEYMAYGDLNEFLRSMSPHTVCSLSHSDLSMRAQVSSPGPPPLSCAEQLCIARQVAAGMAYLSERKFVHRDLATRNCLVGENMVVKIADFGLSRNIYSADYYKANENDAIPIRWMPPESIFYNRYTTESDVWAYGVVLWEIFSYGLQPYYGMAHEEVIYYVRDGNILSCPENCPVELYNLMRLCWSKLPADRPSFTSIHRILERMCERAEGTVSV

[28] = target: NLK (human) (UniProt Q9UBE8)
[29] = target: PAK1 (human) (UniProt Q13153)
[30] = target: PAK6 (human) (UniProt Q9NQU5)
[31] = target: PDPK1 (human) (UniProt O15530)
Chain of PDPK1 (human) (O15530 whole entry, looked up): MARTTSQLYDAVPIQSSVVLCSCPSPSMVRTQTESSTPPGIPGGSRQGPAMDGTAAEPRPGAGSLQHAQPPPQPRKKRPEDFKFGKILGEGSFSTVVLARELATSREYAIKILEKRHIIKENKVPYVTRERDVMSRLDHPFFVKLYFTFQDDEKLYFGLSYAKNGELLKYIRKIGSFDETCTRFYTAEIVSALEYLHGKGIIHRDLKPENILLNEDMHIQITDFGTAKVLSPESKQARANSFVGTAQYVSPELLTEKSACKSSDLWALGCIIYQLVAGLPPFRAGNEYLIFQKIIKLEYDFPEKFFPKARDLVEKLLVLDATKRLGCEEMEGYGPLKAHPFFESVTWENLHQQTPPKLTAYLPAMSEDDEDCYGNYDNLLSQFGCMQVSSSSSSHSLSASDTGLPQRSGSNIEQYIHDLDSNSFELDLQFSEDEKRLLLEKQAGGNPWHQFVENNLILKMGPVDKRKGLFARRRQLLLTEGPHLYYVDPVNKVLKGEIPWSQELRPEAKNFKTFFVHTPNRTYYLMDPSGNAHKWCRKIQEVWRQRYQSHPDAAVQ

[32] = target: PRKCB1 (human) (UniProt P05771)
[33] = target: PRKCB2 (human) (UniProt P05771)
[34] = target: RPS6KA3 KD1 KD2 (human) (UniProt P51812)
[35] = target: SRMS (human) (UniProt Q9H3Y6)
[36] = target: STK39 (human) (UniProt Q9UEW8)
[37] = target: TSSK2 (human) (UniProt Q96PF2)
[38] = target: TTK (human) (UniProt P33981)
[39] = target: VRK1 (human) (UniProt Q99986)
[40] = target: LCK (human) (UniProt P06239)
[41] = target: TAOK3 (human) (UniProt Q9H2K8)

Chain of CAMK2D (human) (Q13557 whole entry, looked up): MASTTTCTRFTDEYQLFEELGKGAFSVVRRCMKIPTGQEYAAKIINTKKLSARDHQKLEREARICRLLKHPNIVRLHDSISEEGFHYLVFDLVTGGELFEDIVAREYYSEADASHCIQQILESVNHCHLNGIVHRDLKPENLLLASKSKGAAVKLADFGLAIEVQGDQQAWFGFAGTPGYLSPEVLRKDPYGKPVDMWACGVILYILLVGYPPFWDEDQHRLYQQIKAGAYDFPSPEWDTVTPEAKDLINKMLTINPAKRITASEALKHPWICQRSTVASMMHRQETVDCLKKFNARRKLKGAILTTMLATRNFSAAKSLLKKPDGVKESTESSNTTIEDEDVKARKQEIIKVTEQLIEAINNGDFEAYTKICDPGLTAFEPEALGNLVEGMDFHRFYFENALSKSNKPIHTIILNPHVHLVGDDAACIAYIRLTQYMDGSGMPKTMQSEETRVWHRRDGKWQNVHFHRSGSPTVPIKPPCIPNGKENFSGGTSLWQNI

## Cn1c2ccccc2c2c3c(c4c5ccccc5n(CCC#N)c4c21)CNC3=O
[1]
  residual activity: 102%
[2]
  residual activity: 20.3%
[3]
  residual activity: 27.8%
[4]
  residual activity: 8.52%
[5]
  residual activity: 88.7%
[6]
  residual activity: 66.2%
[7]
  residual activity: 84.4%
[8]
  residual activity: 84.7%
[9]
  residual activity: 92.5%
[10]
  residual activity: 97.9%
[11]
  residual activity: 95%
[12]
  residual activity: 5.9%
[13]
  residual activity: 75.1%
[14]
  residual activity: 44.4%
[15]
  residual activity: 38.9%
[16]
  residual activity: 81.1%
[17]
  residual activity: 103%
[18]
  residual activity: 45.3%
[19]
  residual activity: 5.68%
[20]
  residual activity: 0.433%
[21]
  residual activity: 109%
[22]
  residual activity: 83.7%
[23]
  residual activity: 127%
[24]
  residual activity: 11.8%
[25]
  residual activity: 10.8%
[26]
  residual activity: 18%
[27]
  residual activity: 34.8%
[28]
  residual activity: 57.3%
[29]
  residual activity: 83.3%
[30]
  residual activity: 20.4%
[31]
  residual activity: 63.2%
[32]
  residual activity: 18.7%
[33]
  residual activity: 9.73%
[34]
  residual activity: 5.93%
[35]
  residual activity: 96.6%
[36]
  residual activity: 96.7%
[37]
  residual activity: 74.3%
[38]
  residual activity: 69%
[39]
  residual activity: 84%

## N#Cc1c[nH]c2c[nH]/c(=N\Cc3cccnc3)cc2/c1=N\c1ccc(F)c(Cl)c1
[1]
  residual activity: 103%
[2]
  residual activity: 103%
[3]
  residual activity: 94.1%
[4]
  residual activity: 80.4%
[5]
  residual activity: 79.9%
[6]
  residual activity: 63.3%
[7]
  residual activity: 108%
[8]
  residual activity: 97.2%
[9]
  residual activity: 102%
[10]
  residual activity: 122%
[11]
  residual activity: 93.1%
[12]
  residual activity: 82.9%
[13]
  residual activity: 98.8%
[14]
  residual activity: 106%
[15]
  residual activity: 99.8%
[16]
  residual activity: 98.6%
[17]
  residual activity: 93.1%
[40]
  residual activity: 97.3%
[18]
  residual activity: 101%
[19]
  residual activity: 72.2%
[20]
  residual activity: 44.4%
[21]
  residual activity: 100%
[22]
  residual activity: 94%
[23]
  residual activity: 99.6%
[24]
  residual activity: 93.2%
[25]
  residual activity: 96.4%
[26]
  residual activity: 79.3%
[27]
  residual activity: 55.6%
[28]
  residual activity: 88%
[29]
  residual activity: 95.7%
[30]
  residual activity: 104%
[31]
  residual activity: 85.3%
[32]
  residual activity: 104%
[33]
  residual activity: 86.2%
[34]
  residual activity: 99.1%
[35]
  residual activity: 104%
[36]
  residual activity: 78.6%
[41]
  residual activity: 99.2%
[37]
  residual activity: 100%
[38]
  residual activity: 99.1%
[39]
  residual activity: 99.2%

## CO[C@@H]1[C@H](N(C)C(=O)c2ccccc2)C[C@H]2O[C@]1(C)n1c3ccccc3c3c4c(c5c6ccccc6n2c5c31)C(=O)NC4
[1]
  residual activity: 106%
[2]
  residual activity: 17.3%
[3]
  residual activity: 81.2%
[4]
  residual activity: 74.1%
[5]
  residual activity: 36%
[6]
  residual activity: 22.6%
[7]
  residual activity: 105%
[8]
  residual activity: 101%
[9]
  residual activity: 92.3%
[12]
  residual activity: 22.4%
[13]
  residual activity: 94.4%
[16]
  residual activity: 101%
[17]
  residual activity: 90.5%
[40]
  residual activity: 19.8%
[18]
  residual activity: 19.6%
[19]
  residual activity: 5.17%
[21]
  residual activity: 97.8%
[22]
  residual activity: 91.5%
[23]
  residual activity: 92%
[25]
  residual activity: 3.16%
[27]
  residual activity: 44.6%
[28]
  residual activity: 96.9%
[29]
  residual activity: 35.1%
[30]
  residual activity: 96.4%
[31]
  residual activity: 21.8%
[34]
  residual activity: 3.19%
[35]
  residual activity: 97.6%
[36]
  residual activity: 96%
[41]
  residual activity: 38.1%
[37]
  residual activity: 89.1%
[38]
  residual activity: 55%
[39]
  residual activity: 90.8%
